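1) Cells in 96-well plates. 2) Compound, 48 h, 5 concentrations. 3) Linear interpolation between surrounding doses. 4) Unreached endpoint = highest concentration. The concentration for 50% growth inhibition is given as GI50. TGI: concentration producing complete growth inhibition.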
Columns and labels:
Assay in all cases: DTP human tumour cell line panel, 48 h
UO-31 renal = system: UO-31 renal
SK-MEL-28 melanoma = system: SK-MEL-28 melanoma
RXF 393 renal = system: RXF 393 renal
COLO 205 colon = system: COLO 205 colon
A498 renal = system: A498 renal
LOX IMVI melanoma = system: LOX IMVI melanoma
NCI-H23 lung = system: NCI-H23 lung
NCI/ADR-RES ovarian = system: NCI/ADR-RES ovarian
SF-268 CNS = system: SF-268 CNS
SK-MEL-5 melanoma = system: SK-MEL-5 melanoma

Structure (SMILES)	TGI (UO-31 renal)	TGI (SK-MEL-28 melanoma)	TGI (RXF 393 renal)	TGI (COLO 205 colon)	TGI (A498 renal)	TGI (LOX IMVI melanoma)	TGI (NCI-H23 lung)	TGI (NCI/ADR-RES ovarian)	TGI (SF-268 CNS)	TGI (SK-MEL-5 melanoma)	GI50 (UO-31 renal)	GI50 (SK-MEL-28 melanoma)	GI50 (RXF 393 renal)	GI50 (COLO 205 colon)	GI50 (A498 renal)	GI50 (LOX IMVI melanoma)	GI50 (NCI-H23 lung)	GI50 (NCI/ADR-RES ovarian)	GI50 (SF-268 CNS)	GI50 (SK-MEL-5 melanoma)
Nc1ccc(Cc2ccc(N)c(C(=O)O)c2)cc1C(=O)O	> 100 µM	> 100 µM	> 100 µM	> 100 µM	> 100 µM	> 100 µM	> 100 µM	> 100 µM	> 100 µM	> 100 µM										
CC12OC(C(=O)C13CCC3)C1C(=O)c3c(O)ccc(O)c3C(=O)C12 (configuration not stated)	9.06 µM	6.35 µM	3.3 µM	> 100 µM	29.8 µM	> 100 µM	2.15 µM	2.63 µM	26.3 µM	26.1 µM	2.82 µM	2.49 µM	1.41 µM	3.14 µM	14.5 µM	2.33 µM	0.577 µM	0.69 µM	7.96 µM	11 µM
CC(NC(=O)c1ccc(OP(=O)(OCc2ccc([N+](=O)[O-])o2)N(C)CCCCCl)cc1)c1ccc(OCC2CCCCC2)c(C(N)=O)c1 (configuration not stated)	6.39 µM	7 µM	9.25 µM	6.24 µM	63.2 µM	5.43 µM	> 52.2 µM	> 100 µM	10.9 µM	6.14 µM										
COc1cc(/C=C2\CC3C4CC[C@H]5C[C@@H](O)CC[C@]5(C)C4CC[C@]3(C)\C2=N\O)cc(OC)c1OC (some centres not stated)	17.4 µM	66.9 µM	36.8 µM	29.4 µM	31.1 µM	64.2 µM	> 100 µM	48.6 µM	> 100 µM	30.7 µM										
COc1cc(S(=O)(=O)Nc2ccc(-c3csc(/N=C\c4cccc(Oc5ccccc5)c4)n3)cc2)ccc1Cl	> 100 µM	> 100 µM	49.4 µM	> 100 µM		39 µM	> 100 µM	> 100 µM	> 100 µM	> 100 µM										
O=C(NN1CCCCC1)c1cc2cc(CCl)ccc2oc1=O	35.3 µM	> 100 µM	34.4 µM	36 µM	> 100 µM	35.9 µM	32.5 µM	54.2 µM	32.9 µM	33.7 µM										
Nc1csc(-c2scc3c2OCCO3)c1N	33.4 µM	49.5 µM	56.1 µM	91.4 µM	36.6 µM	30.9 µM	35.6 µM	61.7 µM	47.5 µM	35.4 µM										
C/C=C/C(O)P(=O)(OC)OC (configuration not stated)	0.334 µM	1.36 µM	0.543 µM	0.366 µM	0.955 µM	0.392 µM	1.2 µM		0.914 µM	0.483 µM										
Cc1cc(=O)[nH]c(S(=O)(=O)NC(=O)Nc2cccc(Cl)c2)n1	13.9 µM	> 100 µM	> 100 µM	> 100 µM	> 100 µM	> 100 µM	> 100 µM	> 100 µM	> 100 µM	> 100 µM										
COc1cc2cc[n+](C)c(Cc3ccc(Oc4cc(Cc5c6cc(OC)c(OC)cc6cc[n+]5C)ccc4OC)cc3)c2cc1OC	> 100 µM	> 100 µM	> 100 µM	> 100 µM	> 100 µM	> 100 µM	> 100 µM		> 100 µM	> 100 µM										
CN(CCCNC(=O)c1nn(-c2ccccc2)c2c1Cc1ccccc1-2)CCCNC(=O)c1nn(-c2ccccc2)c2c1Cc1ccccc1-2	3.29 µM	2.77 µM		2.8 µM	3.15 µM		3.03 µM	3.37 µM	3.31 µM	3.02 µM										
Cc1c2ccccc2cc2cccc[n+]12	83.5 µM	70.5 µM	> 100 µM	> 100 µM		> 100 µM	65.5 µM	> 100 µM	40.4 µM	92.3 µM										
c1ccc(C[N+]23C(CC[C@H]2c2ccccc2)CC[C@H]3c2ccccc2)cc1 (some centres not stated)	> 100 µM	> 100 µM	57.2 µM	31.2 µM	> 100 µM	> 100 µM			> 100 µM	19.1 µM										
COc1ccc2c3c([nH]c2c1)[C@H](C=C(C)C)N1C(=O)[C@@H]2CCCN2C(=O)[C@@H]1C3	> 100 µM	55.5 µM	> 100 µM	> 100 µM	> 100 µM	> 100 µM	> 100 µM	> 100 µM	> 100 µM											
CCCCSCCC(N)P(=O)(O)O (configuration not stated)	> 100 µM	> 100 µM		> 100 µM		> 100 µM	> 100 µM	> 100 µM		> 100 µM										
C[C@]12O[C@@]3(C)O[C@@]3(C)[C@]3(C)O[C@]3(C)[C@@]1(C)O2	> 100 µM	> 100 µM		> 100 µM	> 100 µM	> 100 µM	> 100 µM	> 100 µM	> 100 µM	> 100 µM										
Fc1c(F)c(F)c(CSc2nc3ccccc3[nH]2)c(F)c1F	> 100 µM	> 100 µM	> 100 µM	> 100 µM	> 100 µM	> 100 µM	> 100 µM	> 100 µM	> 100 µM	> 100 µM										
CC(CCCCNC(=O)OC(C)(C)C)NC(=O)NC(C)CCCCNC(=O)OC(C)(C)C (configuration not stated)	> 100 µM	> 100 µM	> 100 µM	> 100 µM	> 100 µM	> 100 µM	> 100 µM	> 100 µM	> 100 µM	> 100 µM										

Source: PubChem BioAssay (NCI)
